In article PMC10600247, “Impact of C- and N-terminal protection on the stability, metal chelation and antimicrobial properties of calcitermin” (Scientific Reports, 2023):
“And” between values parts separate entries of the source, which are not always exact repeats. Identical values can stand only once.

How the values were obtained:
S. aureus (ATCC 25293) = assay: In vitro anti-S. aureus CFU assay; type: cell-based, Staphylococcus aureus; settings: 3 h, pH 5.4; for mean CFU number ± S.D.: metal salt alone, one value per peptide panel
Protocol: (§1) All microbes were grown at 37 °C in Tryptic Soy Broth (TSB; Biolife, Milan, Italy) or Tryptic Soy Agar plates (TSA, Biolife, Milan, Italy). Peptides were tested at a final concentration C = 0.128, 0.064, 0.032 mg/mL, in the presence or absence of ZnCl2 or CuCl2, at a M:L molar ratio 0.9:1. Briefly, all the microbes were expanded in TSB at 37 °C under agitation for 12 h and then sub-cultured by 1:10 dilution in TSB under the same conditions until reaching OD600nm = 0.3–0.4, as measured by spectrophotometric reading using a GENESYS 10S UV–Vis spectrophotometer (Thermo Scientific, Milan, Italy), corresponding to 0.9–1.2 × 10^7 colony forming units (CFU) per mL, 1.5–2 × 10^8 CFU/mL and 2.4–3.2 × 10^8 CFU/mL, for C. albicans, S. aureus and E. coli respectively. The cultures were then centrifuged at 4500 rpm for 10 min in a SL 8 centrifuge (TX-150 Rotor) (Thermo Scientific, Milan, Italy), and the cellular pellets were washed with PBS pH 5.4. Pelletized cultures were then suspended in 10 mL of PBS pH 5.4, then the suspensions were diluted to a final concentration of 10^4 CFU/mL. Aliquots of 100 µl (corresponding to 10^3 CFU) were seeded in each well of a 96-wells plate. 3 µl of TSB at pH 5.4 were added to each well to obtain a final 1.5% TSB concentration in the culture medium. Peptides were serially diluted in PBS pH 5.4 to C = 0.257, 0.128, and 0.064 mg/mL. ZnCl2 and CuCl2 solutions were added where requested to obtain a M:L ratio 0.9:1. 100 µl of the prepared peptides ± ZnCl2/CuCl2 solutions were then added to each well, obtaining the final 0.128, 0.064 and 0.032 mg/mL peptide concentrations in a total 0.2 mL volume. PBS alone and PBS + ZnCl2/CuCl2 solutions were included as controls. The plates were incubated at 37 °C on a platform rocker with slow stirring for 3 and 24 h. At the end of the incubation times, 100 µl aliquots were taken from each sample and diluted in PBS pH 5.4 to be seeded on TSA plates. Specifically, aliquots were diluted 1:10 at 3 h, and 1:200, 1:100,000 and 1:10 at 24 h, for C. albicans, E. coli, and S. aureus respectively. After incubation for 24 h at 37 °C, grown CFUs were enumerated. Samples were assayed in triplicate in two independent experiments. Student’s t-test was used for the evaluation of significance in biological tests; a p value ≤ 0.05 was considered significant.

E. coli (ATCC 25922) = assay: In vitro anti-E. coli CFU assay; type: cell-based, Escherichia coli; settings: pH 5.4; for CFU decrease/increase with respect to untreated controls / mean CFU number ± S.D.: metal salt alone, one value per peptide panel
Protocol: as §1

C. albicans (ATCC 10231) = assay: In vitro antifungal CFU assay; type: cell-based, Candida albicans; settings: pH 5.4
Protocol: as §1

[1] = same concentration as used with 0.032 mg/mL peptide
[2] = same concentration as used with 0.064 mg/mL peptide
[3] = same concentration as used with 0.032 mg/mL peptide, 3 h
[4] = same concentration as used with 0.032 mg/mL peptide, 24 h
[5] = same concentration as used with 0.064 mg/mL peptide, 3 h
[6] = same concentration as used with 0.064 mg/mL peptide, 24 h
[7] = same concentration as used with 0.128 mg/mL peptide, 3 h
[8] = metal salt alone, same concentration as used with 0.032 mg/mL peptide, 24 h, one value per peptide panel
[9] = metal salt alone, same concentration as used with 0.064 mg/mL peptide, 24 h, one value per peptide panel

Row | Compound | mean CFU number ± S.D. (S. aureus (ATCC 25293); [1]) | mean CFU number ± S.D. (S. aureus (ATCC 25293); [2]) | CFU decrease/increase with respect to untreated controls (E. coli (ATCC 25922); [3]) | mean CFU number ± S.D. (E. coli (ATCC 25922); [3]) | mean CFU number ± S.D. (E. coli (ATCC 25922); [4]) | mean CFU number ± S.D. (E. coli (ATCC 25922); [5]) | mean CFU number ± S.D. (E. coli (ATCC 25922); [6]) | CFU decrease/increase with respect to untreated controls (E. coli (ATCC 25922); [7]) | mean CFU number ± S.D. (E. coli (ATCC 25922); [7]) | mean CFU number ± S.D. (C. albicans (ATCC 10231); [8]) | other results
1 | [Cl][Cu][Cl] [CuCl2, reference compound] | 201 ± 25 CFU and 178 ± 2 CFU | 170 ±17 CFU and 188 ± 62 CFU | -36% and -42% | 474 ± 91 CFU and 665 ± 96 CFU | 160 ± 42 CFU and 256 ± 3 CFU | 255 ± 23 CFU and 383 ± 82 CFU | 93 ± 28 CFU and 47 ± 28 CFU | -95% and -92% | 57 ± 4 CFU and 64 ± 24 CFU | 2,184 ± 195 CFU and 1,671 ± 25 CFU and 2,558 ± 367 CFU and 1,800 ± 195 CFU | mean CFU number ± S.D. (S. aureus (ATCC 25293); same concentration as used with 0.128 mg/mL peptide): 201 ± 23 CFU and 159 ± 22 CFU; CFU number reduction by the metal salt alone, over all performed assays (E. coli (ATCC 25922); 3 h): up to 96%; CFU number reduction by the metal salt alone, over all performed assays (E. coli (ATCC 25922); 24 h): up to 96%; mean CFU number ± S.D. (C. albicans (ATCC 10231); [9]): 2,152 ± 228 CFU and 1,697 ± 81 CFU and 2,456 ± 236 CFU and 1,820 ± 125 CFU; mean CFU number ± S.D. (C. albicans (ATCC 10231); metal salt alone, same concentration as used with 0.128 mg/mL peptide, 24 h, one value per peptide panel): 1,816 ± 109 CFU and 2,139 ± 55 CFU and 1,360 ± 68 CFU and 1,946 ± 96 CFU
2 | [Cl-].[Cl-].[Zn+2] [ZnCl2, reference compound] | 178 ± 60 CFU and 121 ± 11 CFU and 125 ± 60 CFU | 84 ± 13 CFU and 100 ± 11 CFU | -47% and -45% | 449 ± 74 CFU and 559 ± 25 CFU | 170 ± 14 CFU and 238 ± 16 CFU | 249 ± 11 CFU and 329 ± 11 CFU | 163 ± 47 CFU and 235 ± 6 CFU | -95% and -91% | 49 ± 8 CFU and 72 ± 21 CFU | 1,915 ± 234 CFU and 1,797 ± 162 CFU and 2,249 ± 145 CFU and 1,413.7 ± 348 CFU | CFU reduction by the metal salt alone compared to controls, over all performed assays (S. aureus (ATCC 25293)): up to 77%; CFU decrease/increase with respect to untreated controls (E. coli (ATCC 25922); [4]): -1%; CFU decrease/increase with respect to untreated controls (E. coli (ATCC 25922); [6]): -3% and -5%; mean CFU number ± S.D. (E. coli (ATCC 25922); same concentration as used with 0.128 mg/mL peptide, 24 h): 168 ± 22 CFU; CFU number reduction by the metal salt alone, over all performed assays (C. albicans (ATCC 10231); 3 h): up to 64.9%; CFU number reduction by the metal salt alone, over all performed assays (C. albicans (ATCC 10231); 24 h): ≤ 94%; mean CFU number ± S.D. (C. albicans (ATCC 10231); metal salt alone, same concentration as used with 0.032 mg/mL peptide, 3 h, one value per peptide panel): 94.2 ± 23 CFU and 91 ± 25 CFU and 107 ± 13 CFU; mean CFU number ± S.D. (C. albicans (ATCC 10231); metal salt alone, same concentration as used with 0.064 mg/mL peptide, 3 h, one value per peptide panel): 49 ± 2 CFU and 87 ± 6 CFU and 75.33 ± 25 CFU and 98 ± 15 CFU; CFU decrease/increase with respect to untreated controls (C. albicans (ATCC 10231); [9]): -36% and -40% and -38%; mean CFU number ± S.D. (C. albicans (ATCC 10231); metal salt alone, same concentration as used with 0.128 mg/mL peptide, 3 h, one value per peptide panel): 32 ± 9 CFU and 62 ± 6 CFU and 53 ± 14 CFU and 34.7 ± 9 CFU
